Data published in patent publication US20110172296A1, “MODULATION OF TRANSFORMING GROWTH FACTOR-BETA 1 EXPRESSION” (priority 2010, published 2011).
Where “and” joins values, the source holds several entries; their conditions need not be identical. Equal values may be shown once. In the oligonucleotide strings, read from the 5' end, every base follows the letter of its sugar. An asterisk marks phosphorothioate; unmarked linkages are phosphodiester. Other units and linkages are bracketed, terminal groups are in braces. A string of capitals states the bases alone. e = 2'-O-(2-methoxyethyl) (MOE); [5mC] = 5-methylcytosine; d = 2'-deoxy (DNA)

System: human TGF-beta1 mRNA
Experiment: Antisense inhibition of human TGF-beta1 mRNA in HuVEC cells, single 10 nM dose, Lipofectamine 2000 (Example 2)
Type: cell-based
Details: for % inhibition: 10 nM oligonucleotide, HuVEC, relative to untreated control cells, gapmers targeted to SEQ ID NO: 2; for inhibition of a TGF-beta1 mRNA: threshold lists of Oligo IDs, 10 nM
Experimental: Antisense oligonucleotides targeted to a TGF-beta1 nucleic acid were tested for their effects on TGF-beta1 mRNA in vitro. Cultured HuVEC cells at a density of 5,000 cells per well were transfected using Lipofectamine™ 2000 reagent with 10 nM antisense oligonucleotide for 4 hours. After a recovery period of approximately 24 hours, RNA was isolated from the cells and TGF-beta1 mRNA levels were measured by quantitative real-time PCR. TGF-beta1 mRNA levels were adjusted according to total RNA content, as measured by RIBOGREEN®. Results are presented as percent inhibition of TGF-beta1, relative to untreated control cells.
The chimeric antisense oligonucleotides in Tables 1 and 2 were designed as 2-13-5 MOE gapmers. Antisense molecules with this motif targeting TGF-beta1 are unique, and represent a novel chemical structure for an ASO directed against this target. The gapmers are 20 nucleotides in length, wherein the central gap segments are comprised of thirteen 2′-deoxynucleotides and are flanked on the 5′ side by wings comprising two nucleotides each and on the 3′ side by wings comprising five nucleotides each. Each nucleotide in the 5′ wing segment and each nucleotide in the 3′ wing segment has a 2′-MOE modification. The internucleoside linkages throughout each gapmer are phosphorothioate (P═S) linkages. All cytosine residues throughout each gapmer are 5-methylcytosines. “Target start site” indicates the 5′-most nucleotide to which the gapmer is targeted. “Target stop site” indicates the 3′-most nucleotide to which the gapmer is targeted. Each gapmer listed in Table 1 is targeted to SEQ ID NO: 1 (GENBANK Accession No. NM_000660.3). Each gapmer listed in Table 2 is targeted to SEQ ID NO: 2 (GENBANK Accession No. NT 011109.15 truncated from 14103000 to […]).

Substance | % inhibition [%] | inhibition of a TGF-beta1 mRNA
414045 (antisense eA*eG*d[5mC]*d[5mC]*dA*dG*dT*dT*dT*d[5mC]*dT*dT*d[5mC]*dT*dG*e[5mC]*e[5mC]*eA*eG*eT) [compound 414045] | 80 | 60% and 65% and 70% and 75% and 80%
414046 (antisense eG*eT*dG*dA*dA*dA*d[5mC]*dA*d[5mC]*d[5mC]*dG*dA*dG*dG*dA*e[5mC]*eA*e[5mC]*e[5mC]*eT) [compound 414046] | 67 | 60% and 65%
414047 (antisense e[5mC]*e[5mC]*dT*dG*d[5mC]*d[5mC]*d[5mC]*d[5mC]*dT*dT*dG*dG*dT*dG*dG*eA*eA*eG*e[5mC]*eG) [compound 414047] | 41 | 
414048 (antisense eG*eG*dT*dT*dT*d[5mC]*d[5mC]*d[5mC]*d[5mC]*dA*dG*d[5mC]*d[5mC]*dA*d[5mC]*e[5mC]*e[5mC]*eT*eG*eA) [compound 414048] | 61 | 60%
414049 (antisense e[5mC]*eT*dG*dA*dG*dT*dG*dG*dG*dA*dG*d[5mC]*d[5mC]*d[5mC]*d[5mC]*eG*e[5mC]*e[5mC]*e[5mC]*eG) [compound 414049] | 53 | 
414050 (antisense eT*eT*d[5mC]*d[5mC]*d[5mC]*d[5mC]*dA*dA*dG*dG*d[5mC]*dT*d[5mC]*dT*dG*eA*eA*e[5mC]*e[5mC]*eA) [compound 414050] | 82 | 60% and 65% and 70% and 75% and 80%
414051 (antisense eG*eT*d[5mC]*dA*dG*dT*dG*dT*dT*dA*dA*dA*dG*dG*dA*eA*e[5mC]*e[5mC]*eT*e[5mC]) [compound 414051] | 36 | 
414052 (antisense eA*e[5mC]*dA*d[5mC]*dA*dT*dG*dT*dG*d[5mC]*dA*dT*dT*dT*dG*eT*eT*eG*eG*eG) [compound 414052] | 52 | 
414053 (antisense eT*eT*dG*dG*d[5mC]*d[5mC]*d[5mC]*dG*dG*dA*dG*dG*dT*dT*dA*e[5mC]*eT*e[5mC]*eA*eG) [compound 414053] | 52 | 
414054 (antisense eT*eG*dA*dA*dG*dT*dT*d[5mC]*dA*dT*dT*d[5mC]*dT*dG*dG*eG*eT*eA*eG*eG) [compound 414054] | 51 | 
414055 (antisense eA*eT*dT*dA*dG*dT*dT*dT*dT*d[5mC]*d[5mC]*dA*d[5mC]*d[5mC]*d[5mC]*eT*eT*eA*eA*e[5mC]) [compound 414055] | 53 | 
414056 (antisense eT*eT*dA*dT*dA*d[5mC]*d[5mC]*d[5mC]*dG*dT*dT*dT*dA*dA*dT*eA*eG*eA*eT*eG) [compound 414056] | 41 | 
414057 (antisense eT*eA*d[5mC]*dA*d[5mC]*dT*dG*dG*dT*d[5mC]*dA*d[5mC]*dT*d[5mC]*dA*eA*eT*e[5mC]*eA*eT) [compound 414057] | 58 | 
414059 (antisense e[5mC]*eA*dA*dG*dA*d[5mC]*dA*dG*dA*dG*dT*dG*dA*d[5mC]*dT*e[5mC]*eT*eA*eG*eA) [compound 414059] | 66 | 60% and 65%
414060 (antisense eA*e[5mC]*dA*dG*d[5mC]*dA*dA*dT*dA*dA*d[5mC]*dA*dT*dT*dA*eA*eG*e[5mC]*eT*e[5mC]) [compound 414060] | 31 | 
414061 (antisense eT*eG*dT*dG*dT*dG*dA*d[5mC]*d[5mC]*dA*dT*dG*dG*dG*d[5mC]*eA*eG*eT*eT*eA) [compound 414061] | 69 | 60% and 65%
414062 (antisense e[5mC]*e[5mC]*d[5mC]*d[5mC]*dT*dA*dA*dA*dA*dT*dG*d[5mC]*dA*dG*dA*eG*eT*eA*eA*eG) [compound 414062] | 72 | 60% and 65% and 70%
414063 (antisense eA*eA*dG*dT*d[5mC]*dG*dA*d[5mC]*dT*dA*dA*dG*dG*d[5mC]*dT*eG*eG*e[5mC]*eA*e[5mC]) [compound 414063] | 80 | 60% and 65% and 70% and 75% and 80%
414064 (antisense eT*eG*dT*dG*dA*d[5mC]*d[5mC]*dT*dT*dG*dA*dG*dG*dA*dA*eG*eT*eG*eG*eT) [compound 414064] | 61 | 60%
414065 (antisense eA*eA*dA*dT*dG*dA*dA*dG*dG*dG*dA*dG*dG*d[5mC]*dG*eA*eT*e[5mC]*eA*eG) [compound 414065] | 24 | 

Substance | % inhibition [%] | inhibition of a TGF-beta1 mRNA
414066 (antisense eG*eT*dG*dG*dA*d[5mC]*d[5mC]*dT*dT*dG*dT*dA*dA*d[5mC]*d[5mC]*eA*eG*e[5mC]*e[5mC]*eG) [compound 414066] | 80 | 60% and 65% and 70% and 75% and 80%
414067 (antisense eT*e[5mC]*d[5mC]*dT*dA*dG*dG*dA*dT*dG*d[5mC]*dA*dA*dA*dG*eA*eG*eT*e[5mC]*eT) [compound 414067] | 71 | 60% and 65% and 70%
414068 (antisense eT*e[5mC]*dT*dG*d[5mC]*dA*dA*d[5mC]*dA*dT*d[5mC]*d[5mC]*dA*dA*dA*eA*eT*eA*eG*eT) [compound 414068] | 53 | 
414069 (antisense e[5mC]*eT*dA*dT*dG*dA*dG*dT*dT*dA*dA*d[5mC]*dA*dT*dT*e[5mC]*e[5mC]*e[5mC]*eT*e[5mC]) [compound 414069] | 62 | 60%
414070 (antisense eG*eA*d[5mC]*dT*dA*dA*dT*dG*dT*dT*d[5mC]*dT*dA*dT*dA*eA*eA*e[5mC]*e[5mC]*e[5mC]) [compound 414070] | 54 | 
414071 (antisense eT*eA*dG*dA*dA*dG*dT*d[5mC]*dA*dT*dT*dT*d[5mC]*dT*dA*eA*eT*eG*eA*eT) [compound 414071] | 0 | 
414072 (antisense eG*e[5mC]*d[5mC]*dG*dA*dA*dG*dG*dT*dG*dT*dT*dT*dT*d[5mC]*eT*eT*eG*e[5mC]*e[5mC]) [compound 414072] | 48 | 
414073 (antisense e[5mC]*eT*dT*d[5mC]*d[5mC]*d[5mC]*d[5mC]*dA*dA*dA*d[5mC]*dA*dG*dG*d[5mC]*eT*eT*e[5mC]*e[5mC]*eA) [compound 414073] | 65 | 60% and 65%
414074 (antisense eA*eA*dG*dT*dG*dA*d[5mC]*d[5mC]*d[5mC]*d[5mC]*dA*dG*dG*dA*d[5mC]*eA*eA*eA*e[5mC]*eA) [compound 414074] | 24 | 
414075 (antisense eG*eA*dT*dT*dA*dG*d[5mC]*d[5mC]*dA*dA*dT*d[5mC]*dA*d[5mC]*dT*e[5mC]*eA*eG*eG*eT) [compound 414075] | 75 | 60% and 65% and 70% and 75%
414076 (antisense eG*eT*dT*d[5mC]*d[5mC]*d[5mC]*d[5mC]*dA*dG*d[5mC]*dT*dA*d[5mC]*d[5mC]*dT*eA*eG*e[5mC]*e[5mC]*eA) [compound 414076] | 57 | 
414077 (antisense eT*e[5mC]*d[5mC]*dA*dG*dG*d[5mC]*d[5mC]*dT*dT*dT*dG*d[5mC]*dA*d[5mC]*eA*eG*eG*e[5mC]*eT) [compound 414077] | 71 | 60% and 65% and 70%
414078 (antisense eT*eG*dG*dG*d[5mC]*dA*dA*dT*dT*dA*dT*dT*dG*dA*dA*eT*eA*eA*eA*eA) [compound 414078] | 18 | 
414079 (antisense eG*eT*d[5mC]*dT*dT*dG*dG*dT*dT*dA*dT*d[5mC]*dA*d[5mC]*dT*eA*eT*eG*eT*e[5mC]) [compound 414079] | 62 | 60%
414080 (antisense eT*eT*dG*dA*d[5mC]*d[5mC]*dA*dA*dG*dA*d[5mC]*dA*dG*dA*dT*eG*eA*eG*e[5mC]*eT) [compound 414080] | 54 | 
414081 (antisense eG*e[5mC]*dT*dT*dG*dG*dG*dA*d[5mC]*dT*d[5mC]*dA*dG*d[5mC]*dA*eT*eT*eG*eA*e[5mC]) [compound 414081] | 49 | 
414082 (antisense eG*eA*dG*dA*dG*dG*dG*dA*dA*dG*d[5mC]*d[5mC]*dA*dG*dT*e[5mC]*eT*eG*eA*eG) [compound 414082] | 19 | 
414083 (antisense eA*eA*d[5mC]*d[5mC]*dT*dG*dG*dA*dG*d[5mC]*dA*d[5mC]*d[5mC]*dT*dG*eG*eT*e[5mC]*eA*eG) [compound 414083] | 42 | 
414084 (antisense eT*e[5mC]*dA*dG*d[5mC]*d[5mC]*d[5mC]*dA*dA*dG*d[5mC]*dA*d[5mC]*dA*dG*e[5mC]*eA*eG*e[5mC]*eA) [compound 414084] | 75 | 60% and 65% and 70% and 75%
